“And” between values parts separate entries of the source, which are not always exact repeats. Equal values may be shown once.
Columns and labels:
kidney = assay: Renal histopathology of rats treated with T1, T2, T3; assay type: in vivo, rat; details: rat, in vivo
Experimental: Each group consisted of 6 male and 6 female rats. The additional groups consisted of 6 males and 6 female rats treated with control compound for a single day and for five days, as described in Table 24.
T2 “no observed effect level” (NOEL, i.e., the maximal dose at which no toxic effect is visible) is 15 mg/kg.
At autopsy, both kidneys of each animal were removed and each kidney was cross sectioned. Half of each kidney was sent to RNA extraction and analysis.

[1] = test system: kidney tissues of treated or untreated rats; assay: Real-time qRT-PCR of signature amplicons, validation stage, labeled and un-labeled samples (Table 23); details: for H31883_DB71_seg13 normalized qRT-PCR result / MUSCYCG1R_DB81_seg19-20 normalized qRT-PCR result / W41270_DB81_seg11 normalized qRT-PCR result: un-labeled sample, one line per animal; for AI045075_DB71_seg6 normalized qRT-PCR expression (Interferon stimulated exonuclease 20 (ISG20) transcript) / H31883_DB71_seg13 normalized qRT-PCR expression (Cyclin-G1 (CCNG1) transcript) / MUSCYCG1R_DB81_seg19-20 normalized qRT-PCR expression / W41270_DB81_seg11 normalized qRT-PCR expression (tumor necrosis factor receptor superfamily, member 12a transcript) / W64472_DB81_seg2 normalized qRT-PCR expression (Interferon stimulated exonuclease 20 (ISG20) transcript) / W83813_DB81_seg27 normalized qRT-PCR expression: un-labeled samples, kidney of individual male/female rats
Source text: New primers were designed for part of the transcripts, and new conditions for several qRT-PCR reactions were used, as described below.
The measurements were normalized in two steps. First—according to the house-keeping-genes normalization factor, and second—each plate was normalized according to ratio of the intensity measurements from samples appearing in it and in the shuffled (normalization) plate (Table 25 provides the plates details and the section “Inter-Plate Normalization” provides details of the normalization process). The normalized values were further scaled by a factor, for ease of viewing.
RT was prepared and qRT-PCR performed and analyzed as described hereinabove. qRT-PCR was performed for the four genes comprising the signature of the discovery stage described in Table 13. Two amplicons were tested for each gene—one representing the wild-type transcript, and another representing an alternative splice variant. Each amplicon was measured using the labeled samples described in Table 9 herein, as well as the un-labeled samples. Samples from both groups (labeled and un-labeled) were tested in seven 96 well plates as described in Table 25. In order to correct possible run to run variations, the following controls were added: 1. several samples were repeated in all 96 wells plates; 2. control shuffled plate was designed which combined samples from all seven test plates.
To account for possible differences of qRT-PCR measurements between the different plates due to experimental artifacts, a normalization plate was planned. This plate, designated hereinabove ‘shuffled plate’, contained samples from all other plates. Real Time PCR was performed on this plate using the primers appropriate for all candidates in tables 26 and 27. For each other plate (plates 1-7 above) and each amplicon, the samples appearing also in the shuffled plate were examined—the ratio between the transcript abundance as measured in the plate to the abundance as measured in the shuffled plate was calculated, outliers were manually removed, and the geometric mean of the left ratios was taken as an additional multiplicative normalization factor for the plate and amplicon.

[2] = Ds1, Day1, oral gavage, female rat kidney
[3] = Ds1, Day1, oral gavage, male rat kidney
[4] = Ds1, Day5, oral gavage, female rat kidney
[5] = Ds1, Day5, oral gavage, male rat kidney
[6] = Ds2, Day1, oral gavage, female rat kidney
[7] = Ds2, Day1, oral gavage, male rat kidney
[8] = Ds2, Day5, oral gavage, female rat kidney
[9] = Ds2, Day5, oral gavage, male rat kidney

## Nc1nc2ccc(OC(F)(F)F)cc2s1 [T3, 6-(trifluoromethoxy)benzothiazol-2-amine]
kidney
  Renal damage: no renal damage after up to 35 days of treatment
[1]; [2]
  H31883_DB71_seg13 normalized qRT-PCR result: 0.394 and 0.356 and 0.205
  MUSCYCG1R_DB81_seg19-20 normalized qRT-PCR result: 0.85 and 1.252 and 0.37
  W41270_DB81_seg11 normalized qRT-PCR result: 0.859 and 1.064 and 0.507
[1]; [3]
  H31883_DB71_seg13 normalized qRT-PCR result: 0.898 and 0.512 and 0.989 and 0.789
  MUSCYCG1R_DB81_seg19-20 normalized qRT-PCR result: 0.918 and 0.845 and 1.025 and 0.713
  W41270_DB81_seg11 normalized qRT-PCR result: 0.567 and 1.106 and 1.844 and 0.808
[1]; [4]
  H31883_DB71_seg13 normalized qRT-PCR result: 0.701 and 1.155 and 0.791 and 1.096
  MUSCYCG1R_DB81_seg19-20 normalized qRT-PCR result: 0.501 and 0.727 and 0.928 and 1.021
  W41270_DB81_seg11 normalized qRT-PCR result: 0.479 and 0.546 and 0.601 and 0.677
[1]; [5]
  H31883_DB71_seg13 normalized qRT-PCR result: 1.054 and 0.818 and 0.72
  MUSCYCG1R_DB81_seg19-20 normalized qRT-PCR result: 1.285 and 1.133 and 1.175
  W41270_DB81_seg11 normalized qRT-PCR result: 0.88 and 0.8 and 0.499
[1]; [6]
  H31883_DB71_seg13 normalized qRT-PCR result: 0.874 and 0.929 and 1.454
  MUSCYCG1R_DB81_seg19-20 normalized qRT-PCR result: 1.132 and 1.211 and 0.575
  W41270_DB81_seg11 normalized qRT-PCR result: 0.847 and 1.043 and 1.227
[1]; [7]
  H31883_DB71_seg13 normalized qRT-PCR result: 0.276 and 0.164 and 0.218 and 0.211
  MUSCYCG1R_DB81_seg19-20 normalized qRT-PCR result: 1.479 and 0.566 and 1.063 and 1.117
  W41270_DB81_seg11 normalized qRT-PCR result: 2.291 and 1.042 and 1.597 and 1.35
[1]; [8]
  H31883_DB71_seg13 normalized qRT-PCR result: 0.81 and 0.711 and 1.599 and 1.018
  MUSCYCG1R_DB81_seg19-20 normalized qRT-PCR result: 0.666 and 0.977 and 1.436 and 0.58
  W41270_DB81_seg11 normalized qRT-PCR result: 0.587 and 0.623 and 1.24 and 0.704
[1]; [9]
  H31883_DB71_seg13 normalized qRT-PCR result: 1.103 and 0.911
  MUSCYCG1R_DB81_seg19-20 normalized qRT-PCR result: 0.765 and 1.037
  W41270_DB81_seg11 normalized qRT-PCR result: 0.494 and 3.181
[1]; dose Ds1, Day1, oral gavage
  AI045075_DB71_seg6 normalized qRT-PCR expression (Interferon stimulated exonuclease 20 (ISG20) transcript): 0.354 and 1.103 and 0.678 and 0.596
  H31883_DB71_seg13 normalized qRT-PCR expression (Cyclin-G1 (CCNG1) transcript): 0.919 and 0.764 and 0.611 and 0.663 and 0.569 and 1.366 and 0.637 and 0.949 and 0.7 and 0.582 and 1.074
  MUSCYCG1R_DB81_seg19-20 normalized qRT-PCR expression: 0.96 and 0.232 and 0.183 and 1.044 and 1.137 and 0.132 and 0.134 and 0.767 and 0.441 and 0.114 and 0.726
  W41270_DB81_seg11 normalized qRT-PCR expression (tumor necrosis factor receptor superfamily, member 12a transcript): 0.64 and 0.457 and 0.575 and 0.374 and 0.468 and 0.465 and 0.344 and 0.568 and 0.551 and 0.282 and 0.649
  W64472_DB81_seg2 normalized qRT-PCR expression (Interferon stimulated exonuclease 20 (ISG20) transcript): 0.483 and 1.31 and 1.296 and 0.52
  W83813_DB81_seg27 normalized qRT-PCR expression: 0.322 and 0.663 and 0.497 and 0.402
[1]; dose Ds1, Day5, oral gavage
  AI045075_DB71_seg6 normalized qRT-PCR expression (Interferon stimulated exonuclease 20 (ISG20) transcript): 0.615 and 1.082 and 1.102 and 1.032
  H31883_DB71_seg13 normalized qRT-PCR expression (Cyclin-G1 (CCNG1) transcript): 1.65 and 1.003 and 1.338 and 0.576 and 1.082 and 1.358 and 1.585 and 0.946 and 1.094 and 1.3 and 1.301
  MUSCYCG1R_DB81_seg19-20 normalized qRT-PCR expression: 0.649 and 0.716 and 1.035 and 1.226 and 0.857 and 0.625 and 0.525 and 0.398 and 1.413 and 0.62 and 0.638
  W41270_DB81_seg11 normalized qRT-PCR expression (tumor necrosis factor receptor superfamily, member 12a transcript): 0.722 and 1.807 and 0.483 and 0.899 and 0.832 and 1.015 and 0.699 and 0.495 and 1.093 and 0.482 and 1.957
  W64472_DB81_seg2 normalized qRT-PCR expression (Interferon stimulated exonuclease 20 (ISG20) transcript): 0.852 and 1.176 and 1.034 and 0.822
  W83813_DB81_seg27 normalized qRT-PCR expression: 0.754 and 1.146 and 1.388 and 0.659
[1]; dose Ds2, Day1, oral gavage
  AI045075_DB71_seg6 normalized qRT-PCR expression (Interferon stimulated exonuclease 20 (ISG20) transcript): 0.444 and 1.146 and 0.527
  H31883_DB71_seg13 normalized qRT-PCR expression (Cyclin-G1 (CCNG1) transcript): 0.802 and 0.969 and 0.632 and 1.119 and 0.923 and 0.767 and 1.13 and 1.47 and 0.662 and 0.643
  MUSCYCG1R_DB81_seg19-20 normalized qRT-PCR expression: 0.92 and 0.203 and 0.275 and 2.153 and 0.29 and 0.152 and 1.45 and 2.313 and 0.798 and 0.158
  W41270_DB81_seg11 normalized qRT-PCR expression (tumor necrosis factor receptor superfamily, member 12a transcript): 0.49 and 0.347 and 0.174 and 0.912 and 0.418 and 0.359 (2×) and 0.667 and 0.956 and 0.897
  W64472_DB81_seg2 normalized qRT-PCR expression (Interferon stimulated exonuclease 20 (ISG20) transcript): 0.659 and 1.566 and 0.602
  W83813_DB81_seg27 normalized qRT-PCR expression: 0.67 and 0.137 and 0.761
[1]; dose Ds2, Day5, oral gavage
  AI045075_DB71_seg6 normalized qRT-PCR expression (Interferon stimulated exonuclease 20 (ISG20) transcript): 0.37 and 1.451 and 0.53
  H31883_DB71_seg13 normalized qRT-PCR expression (Cyclin-G1 (CCNG1) transcript): 0.942 and 0.718 and 1.058 and 1.087 and 2.34 and 1.259 and 0.705 and 0.846 and 0.949
  MUSCYCG1R_DB81_seg19-20 normalized qRT-PCR expression: 1.567 and 0.875 and 1.708 and 1.024 and 1.119 and 1.475 and 1.004 and 0.658 and 1.003
  W41270_DB81_seg11 normalized qRT-PCR expression (tumor necrosis factor receptor superfamily, member 12a transcript): 0.762 and 1.066 and 1.119 and 0.472 and 0.766 and 0.944 and 0.363 and 0.605 and 0.43
  W64472_DB81_seg2 normalized qRT-PCR expression (Interferon stimulated exonuclease 20 (ISG20) transcript): 0.368 and 0.779 and 0.656
  W83813_DB81_seg27 normalized qRT-PCR expression: 0.729 and 0.728 and 0.933
